Earlier results on one compound are cited in article PMC3692398 (Biochemical pharmacology, 2013).

As a reminder, the Kd is the constant that tells how readily two partners part at equilibrium.

The target of data set [1] is hDAT (Homo sapiens, UniProt Q01959). The following applies: read-out: Kd of radioligand, HEK-hDAT; ref Eshleman et al., 1999; cited from earlier work.
For data set [2], the target named is hSERT (Homo sapiens, UniProt P31645). The conditions noted are these: read-out: Kd of radioligand, HEK-hSERT; ref Eshleman et al., 1999; cited from earlier work.
Sequence of hSERT (P31645 whole entry): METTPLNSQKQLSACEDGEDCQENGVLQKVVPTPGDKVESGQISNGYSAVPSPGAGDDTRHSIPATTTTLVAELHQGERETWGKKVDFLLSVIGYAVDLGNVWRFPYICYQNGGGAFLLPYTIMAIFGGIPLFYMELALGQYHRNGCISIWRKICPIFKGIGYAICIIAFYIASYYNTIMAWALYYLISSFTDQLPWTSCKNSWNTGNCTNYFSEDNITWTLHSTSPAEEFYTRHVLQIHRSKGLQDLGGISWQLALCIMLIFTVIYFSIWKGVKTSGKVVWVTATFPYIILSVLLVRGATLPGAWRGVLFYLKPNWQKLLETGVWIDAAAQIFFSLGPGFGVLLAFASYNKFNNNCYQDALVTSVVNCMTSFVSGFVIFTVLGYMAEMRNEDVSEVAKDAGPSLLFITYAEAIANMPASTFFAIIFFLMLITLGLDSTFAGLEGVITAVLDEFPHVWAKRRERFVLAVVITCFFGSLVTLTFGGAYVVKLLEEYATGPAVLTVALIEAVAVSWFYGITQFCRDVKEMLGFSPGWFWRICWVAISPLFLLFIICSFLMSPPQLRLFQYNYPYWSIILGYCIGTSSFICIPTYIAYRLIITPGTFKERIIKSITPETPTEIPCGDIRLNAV
Data set [3] addresses hNET (Homo sapiens, UniProt P23975). The conditions noted are these: read-out: Kd of radioligand, HEK-hNET; ref Eshleman et al., 1999; cited from earlier work.

Sequence of hNET (P23975 whole entry): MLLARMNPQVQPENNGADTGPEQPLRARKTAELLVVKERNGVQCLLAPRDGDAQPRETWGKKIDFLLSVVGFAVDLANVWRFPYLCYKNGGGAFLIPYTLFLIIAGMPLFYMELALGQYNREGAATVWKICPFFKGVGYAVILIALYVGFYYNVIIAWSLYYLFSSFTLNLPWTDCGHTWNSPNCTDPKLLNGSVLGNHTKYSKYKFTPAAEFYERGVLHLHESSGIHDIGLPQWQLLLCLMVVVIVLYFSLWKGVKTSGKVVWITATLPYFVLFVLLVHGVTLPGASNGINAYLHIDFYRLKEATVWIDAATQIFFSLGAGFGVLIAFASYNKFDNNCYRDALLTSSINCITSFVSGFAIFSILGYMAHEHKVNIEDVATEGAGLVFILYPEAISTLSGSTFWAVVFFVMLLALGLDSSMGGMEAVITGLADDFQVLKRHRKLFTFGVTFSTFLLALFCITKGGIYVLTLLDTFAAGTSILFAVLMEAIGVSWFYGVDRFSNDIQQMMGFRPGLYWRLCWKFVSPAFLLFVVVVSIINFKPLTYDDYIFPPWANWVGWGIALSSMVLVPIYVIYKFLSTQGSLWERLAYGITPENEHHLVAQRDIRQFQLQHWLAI
Sequence of hDAT (Q01959 whole entry): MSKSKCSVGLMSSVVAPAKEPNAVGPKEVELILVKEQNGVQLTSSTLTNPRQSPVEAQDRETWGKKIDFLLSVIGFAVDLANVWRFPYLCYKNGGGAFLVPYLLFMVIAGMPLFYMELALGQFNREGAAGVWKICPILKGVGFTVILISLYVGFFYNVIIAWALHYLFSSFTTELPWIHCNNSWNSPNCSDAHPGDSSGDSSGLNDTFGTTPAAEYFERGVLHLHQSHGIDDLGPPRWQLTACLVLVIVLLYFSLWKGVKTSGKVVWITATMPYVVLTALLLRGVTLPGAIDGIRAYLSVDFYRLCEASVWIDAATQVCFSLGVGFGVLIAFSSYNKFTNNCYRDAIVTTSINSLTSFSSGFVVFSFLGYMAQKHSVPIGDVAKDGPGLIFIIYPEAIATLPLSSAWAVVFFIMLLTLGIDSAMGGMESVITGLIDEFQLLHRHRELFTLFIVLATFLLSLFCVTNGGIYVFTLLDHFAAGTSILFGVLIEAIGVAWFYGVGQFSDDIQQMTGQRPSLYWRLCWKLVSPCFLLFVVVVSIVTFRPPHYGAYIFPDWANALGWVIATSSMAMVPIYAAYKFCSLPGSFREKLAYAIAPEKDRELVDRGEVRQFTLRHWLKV

With `COC(=O)[C@H]1[C@@H](c2ccc(I)cc2)C[C@@H]2CC[C@H]1N2C` [[^125I]RTI-55], the Kd is 1.83 ± 0.21 nM in data set [1], 0.98 ± 0.16 nM in data set [2] and 12.1 ± 1.9 nM in data set [3].
